Results: PubChem BioAssay AID2060894 (Molecular Pharmacology Branch, DTP, NCI, 2025)

Test system: K12877-001-R-J1-PDC complex spheroid viability
Assay: Anticancer human tumor K12877-001-R-J1-PDC patient-derived lung adenocarcinoma cell line growth inhibition [RAS]
Conditions: for IC50: curve of first compound; for viability, T/C: stronger effect = lower value
Procedure, shortened: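 Multi-cell-type spheroids: tumor cells plus HUVEC endothelial cells and mesenchymal stem cells. RAS-pathway inhibitors were combined with targeted agents, each dosed in half-log steps down from clinical Cmax, or from 10 microM when Cmax was unknown.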

[1] = second compound 0.00316 µM, first compound 0.0316 µM
[2] = second compound 0.00316 µM, first compound 0.1 µM
[3] = second compound 0.00316 µM, first compound 0.316 µM
[4] = second compound 0.00316 µM, first compound 1 µM
[5] = second compound 0.00316 µM, first compound 3.16 µM
[6] = second compound 0.00316 µM, first compound 10 µM
[7] = second compound 0.01 µM, first compound 0.0316 µM
[8] = second compound 0.01 µM, first compound 0.1 µM
[9] = second compound 0.01 µM, first compound 0.316 µM
[10] = second compound 0.01 µM, first compound 1 µM
[11] = second compound 0.01 µM, first compound 3.16 µM
[12] = second compound 0.01 µM, first compound 10 µM
[13] = second compound 0.0316 µM, first compound 0.0316 µM
[14] = second compound 0.0316 µM, first compound 0.1 µM
[15] = second compound 0.0316 µM, first compound 0.316 µM
[16] = second compound 0.0316 µM, first compound 1 µM
[17] = second compound 0.0316 µM, first compound 3.16 µM
[18] = second compound 0.0316 µM, first compound 10 µM
[19] = second compound 0.1 µM, first compound 0.0316 µM
[20] = second compound 0.1 µM, first compound 0.1 µM
[21] = second compound 0.1 µM, first compound 0.316 µM
[22] = second compound 0.1 µM, first compound 1 µM
[23] = second compound 0.1 µM, first compound 3.16 µM
[24] = second compound 0.1 µM, first compound 10 µM
[25] = second compound 0.316 µM, first compound 0.0316 µM
[26] = second compound 0.316 µM, first compound 0.1 µM
[27] = second compound 0.316 µM, first compound 0.316 µM
[28] = second compound 0.316 µM, first compound 1 µM
[29] = second compound 0.316 µM, first compound 3.16 µM
[30] = second compound 0.316 µM, first compound 10 µM
[31] = second compound 1 µM, first compound 0.0316 µM
[32] = second compound 1 µM, first compound 0.1 µM
[33] = second compound 1 µM, first compound 0.316 µM
[34] = second compound 1 µM, first compound 1 µM
[35] = second compound 1 µM, first compound 3.16 µM
[36] = second compound 1 µM, first compound 10 µM
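Also: spheroids exposed to agents for one week before readout.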
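For viability, T/C in this document: tumour cells co-cultured with HUVEC and mesenchymal stem cells in spheroids.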

CC(Nc1ccc2c(c1)OCCn1cc(N3C(=O)OCC3C(F)F)nc1-2)C(N)=O (stereo unspecified) + C=CC(=O)N1CCN(c2nc(OCC3CCCN3C)nc3c(F)c(-c4nc(N)cc(C)c4C(F)(F)F)c(Cl)cc23)C(C)C1
IC50 (second compound 0.00316 µM): 1.22 µM
IC50 (second compound 0.01 µM): 1.92 µM
IC50 (second compound 0.0316 µM): 2.12 µM
IC50 (second compound 0.1 µM): 1.86 µM
IC50 (second compound 0.316 µM): 1.16 µM
IC50 (second compound 1 µM): 1.43 µM
viability, T/C [1]: 92%
viability, T/C [2]: 72.8%
viability, T/C [3]: 57.6%
viability, T/C [4]: 61.6%
viability, T/C [5]: 44.9%
viability, T/C [6]: 21.3%
viability, T/C [7]: 86.3%
viability, T/C [8]: 69.6%
viability, T/C [9]: 57.9%
viability, T/C [10]: 64%
viability, T/C [11]: 48.7%
viability, T/C [12]: 18.7%
viability, T/C [13]: 74.3%
viability, T/C [14]: 78.4%
viability, T/C [15]: 57.6%
viability, T/C [16]: 63.1%
viability, T/C [17]: 46.2%
viability, T/C [18]: 16.8%
viability, T/C [19]: 76.7%
viability, T/C [20]: 64.7%
viability, T/C [21]: 65%
viability, T/C [22]: 63.2%
viability, T/C [23]: 40.4%
viability, T/C [24]: 15%
viability, T/C [25]: 75.9%
viability, T/C [26]: 79.1%
viability, T/C [27]: 62.3%
viability, T/C [28]: 50.9%
viability, T/C [29]: 37.6%
viability, T/C [30]: 19.1%
viability, T/C [31]: 77%
viability, T/C [32]: 70.9%
viability, T/C [33]: 62.2%
viability, T/C [34]: 53.1%
viability, T/C [35]: 43.5%
viability, T/C [36]: 19.6%

CCN1CCN(Cc2ccc(Nc3ncc(F)c(-c4cc(F)c5nc(C)n(C(C)C)c5c4)n3)nc2)CC1 + C=CC(=O)N1CCN(c2nc(OCC3CCCN3C)nc3c(F)c(-c4nc(N)cc(C)c4C(F)(F)F)c(Cl)cc23)C(C)C1
IC50 (second compound 0.00316 µM): 0.945 µM
IC50 (second compound 0.01 µM): 0.545 µM
IC50 (second compound 0.0316 µM): 0.691 µM
IC50 (second compound 0.1 µM): 0.614 µM
IC50 (second compound 0.316 µM): 0.597 µM
IC50 (second compound 1 µM): 0.696 µM
viability, T/C (second compound 0.00316 µM, first compound 0.00316 µM): 95.9%
viability, T/C (second compound 0.00316 µM, first compound 0.01 µM): 103%
viability, T/C [1]: 97.2%
viability, T/C [2]: 91.3%
viability, T/C [3]: 83.5%
viability, T/C [4]: 47.8%
viability, T/C (second compound 0.01 µM, first compound 0.00316 µM): 88.3%
viability, T/C (second compound 0.01 µM, first compound 0.01 µM): 89.8%
viability, T/C [7]: 85.2%
viability, T/C [8]: 95.4%
viability, T/C [9]: 65.2%
viability, T/C [10]: 33.2%
viability, T/C (second compound 0.0316 µM, first compound 0.00316 µM): 96.4%
viability, T/C (second compound 0.0316 µM, first compound 0.01 µM): 90.4%
viability, T/C [13]: 76.5%
viability, T/C [14]: 76.7%
viability, T/C [15]: 75.8%
viability, T/C [16]: 39.2%
viability, T/C (second compound 0.1 µM, first compound 0.00316 µM): 92.2%
viability, T/C (second compound 0.1 µM, first compound 0.01 µM): 84.5%
viability, T/C [19]: 83.3%
viability, T/C [20]: 72.4%
viability, T/C [21]: 65.8%
viability, T/C [22]: 39.6%
viability, T/C (second compound 0.316 µM, first compound 0.00316 µM): 95.2%
viability, T/C (second compound 0.316 µM, first compound 0.01 µM): 86.5%
viability, T/C [25]: 79.9%
viability, T/C [26]: 77.9%
viability, T/C [27]: 78.6%
viability, T/C [28]: 30.1%
viability, T/C (second compound 1 µM, first compound 0.00316 µM): 85%
viability, T/C (second compound 1 µM, first compound 0.01 µM): 77.2%
viability, T/C [31]: 88.1%
viability, T/C [32]: 81.1%
viability, T/C [33]: 74.1%
viability, T/C [34]: 38.9%

C[C@@H](NC(=O)c1ncnc(N)c1Cl)c1ncc(C(=O)Nc2cc(C(F)(F)F)c(Cl)cn2)s1 + C=CC(=O)N1CCN(c2nc(OCC3CCCN3C)nc3c(F)c(-c4nc(N)cc(C)c4C(F)(F)F)c(Cl)cc23)C(C)C1
IC50 (second compound 0.00316 µM): > 10 µM
IC50 (second compound 0.01 µM): > 10 µM
IC50 (second compound 0.0316 µM): > 10 µM
IC50 (second compound 0.1 µM): > 10 µM
IC50 (second compound 0.316 µM): > 10 µM
IC50 (second compound 1 µM): > 10 µM
viability, T/C [1]: 94.8%
viability, T/C [2]: 89.7%
viability, T/C [3]: 95.6%
viability, T/C [4]: 99.1%
viability, T/C [5]: 101%
viability, T/C [6]: 99.8%
viability, T/C [7]: 96.8%
viability, T/C [8]: 82.5%
viability, T/C [9]: 92.6%
viability, T/C [10]: 92.9%
viability, T/C [11]: 97.1%
viability, T/C [12]: 85.4%
viability, T/C [13]: 91%
viability, T/C [14]: 86.9%
viability, T/C [15]: 74.3%
viability, T/C [16]: 90.1%
viability, T/C [17]: 86.8%
viability, T/C [18]: 96.5%
viability, T/C [19]: 89.6%
viability, T/C [20]: 83.5%
viability, T/C [21]: 84.7%
viability, T/C [22]: 90.4%
viability, T/C [23]: 83.7%
viability, T/C [24]: 85.2%
viability, T/C [25]: 81.4%
viability, T/C [26]: 81.8%
viability, T/C [27]: 77.1%
viability, T/C [28]: 83.6%
viability, T/C [29]: 83.1%
viability, T/C [30]: 116%
viability, T/C [31]: 75%
viability, T/C [32]: 75.8%
viability, T/C [33]: 89.5%
viability, T/C [34]: 92.5%
viability, T/C [35]: 91.1%
viability, T/C [36]: 113%
